Reference: patent US20230219978A1, “COMPOUND HAVING MACROCYCLIC STRUCTURE AND USE THEREOF” (SCINNOHUB PHARMACEUTICAL CO., LTD, priority 2020, published 2023)

Experiments:
Format in all cases: biochemical
SRC = target: T1, SRC (Homo sapiens, UniProt P12931); experiment: In vitro kinase activity assay (mobility shift assay), SRC; details: ATP 19 μM, reaction time 30 min
T1 construct: purchased Carna 08-173
Method: (§1) The IC50 (half inhibitory concentration) values of the compounds were used as an indicator to evaluate the inhibitory effect of the compound on RET wild-type, RET mutant, TRKa, SRC, BTK and/or mutated BTK kinase.
(§2) Using the method of Mobility shift assay, the compounds were tested for inhibitory activity against the following kinases: RET wild type, RET mutant, TRKa, SRC, BTK and/or mutated BTK. The initial concentration of the test compound was 1000 nM, 3-fold dilution, 10 concentrations, detected in a well for each concentration.
(§3) 20 mM hydroxyethylpiperazineethanesulfonic acid (Hepes) (pH 7.5) buffer, 10 mM MgCl2, 1 mM ethylene glycol bis(aminoethyl ether)tetraacetic acid (EGTA), 0.02% polyoxyethylene lauryl ether (Brij35), 0.02 mg/ml […] (BSA), 0.1 mM Na3VO4, 2 mM dithiothreitol (DTT), 1% DMSO.
(§4) The test compounds were dissolved in 100% dimethyl sulfoxide (DMSO) system, and prepared as 10 mM for use, and stored in a nitrogen cabinet away from light.
(§5) • (1) Preparing 1× kinase reaction buffer. • (2) Preparation of compound concentration gradient: the initial concentration of the compounds was 1000 nM, which was diluted as 100-fold final concentration of solution in 100% dimethyl sulfoxide (DMSO) in a 384-well plate. The compound was accurately 3-fold diluted with the kinase buffer solution, 10 concentrations in total, and the final concentration was 0.0508 nM. The 100-fold final concentration of solution in 100% dimethyl sulfoxide (DMSO) was obtained by dilution in 384 source plate. The liquid separator Echo 550 was used to transfer 250 nl of 100-fold final concentration of compound to the target 384 well plate. 250 nl of DMSO was added to the positive and negative control wells. • (3) 2.5-fold final concentration of kinase solution was prepared by the 1× kinase buffer. • (4) 10 4, of 2.5-fold final concentration of kinase solution was added to the compound well and the positive control well, respectively; 10 4, of 1× kinase buffer was added to the negative control well. • (5) After centrifuging at 1000 rpm for 30 second, the reaction plate was shaken and mixed, followed by incubation at room temperature for 10 min. • (6) a mixed solution of 25/15-fold final concentration of adenosine triphosphate (ATP) and kinase substrate was prepared by 1× kinase buffer. • (7) The mixed solution (15 μL) of 25/15-fold final concentration of adenosine triphosphate (ATP) and substrate was added to initiate the reaction. • (8) 384-well plate was centrifuged at 1000 rpm for 30 second, shaken and mixed well, and then incubated at room temperature for 30-240 min. • (9) After stopping the kinase reaction, the plate was centrifugated at 1000 rpm for 30 second, shaken and mixed well. • (10)The conversion rate was read with Caliper EZ Reader.
(§6) wherein Conversion%_sample is the conversion rate reading of the sample; Conversion%_min: the mean value of negative control wells, representing the conversion rate reading of wells without enzymes; Conversion%_max: the mean value of positive control wells, representing the conversion rate reading of wells without compound inhibition.
(§7) The log value of concentration was taken as the X axis, and the percentage inhibition rate was taken as the Y axis. Graphpad 6.0 analysis software was used to fit the dose-response curve, so as to obtain the IC50 value of each compound on the enzyme activity

BTK = target: T2, BTK (Homo sapiens, UniProt Q06187); experiment: In vitro kinase activity assay (mobility shift assay), BTK; details: ATP 71 μM, reaction time 30 min
T2 construct: purchased Carna 08-180
Method: as §1, §2, §3, §4, §5, §6, §7

RET wt = target: T3, RET wt (Homo sapiens, UniProt P07949); experiment: In vitro kinase activity assay (mobility shift assay), RET wild type; details: ATP 16 μM, reaction time 60 min
T3 construct: purchased Carna 08-159
Procedure, shortened: (§8)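 Each enzyme was first exposed to test compound (top 1000 nM, 3-fold dilutions, 10 concentrations, one well each) for 10 min at room temperature. Adding ATP and peptide substrate started the reaction, which proceeded 30-240 min before stopping. Conversion was then measured and curves fitted for IC50.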

RET G810R = target: T4, RET G810R (Homo sapiens, UniProt P07949, G810R); experiment: In vitro kinase activity assay (mobility shift assay), RET G810R; details: ATP 201 μM, reaction time 4 h
T4 construct: purchased Proqinase 1724-0000-1
Procedure, shortened: as §8

TRKa = target: T5, TRKa (Homo sapiens, UniProt P04629); experiment: In vitro kinase activity assay (mobility shift assay), TRKa; details: ATP 47.8 μM, reaction time 30 min
T5 construct: purchased Carna 08-186
Method: as §1, §2, §3, §4, §5, §6, §7

BTK C481S = target: T6, BTK C481S (Homo sapiens, UniProt Q06187, C481S); experiment: In vitro kinase activity assay (mobility shift assay), BTK C481S; details: ATP 90 μM, reaction time 30 min
T6 construct: purchased Carna 08-547
Method: as §1, §2, §3, §4, §5, §6, §7

RET V804M = target: T7, RET V804M (Homo sapiens, UniProt P07949, V804M); experiment: In vitro kinase activity assay (mobility shift assay), RET V804M; details: ATP 5.4 μM, reaction time 60 min
T7 construct: purchased signalchem R02-12GG
Method: as §1, §2, §3, §4, §5, §6, §7

T3 sequence (P07949 29-1114): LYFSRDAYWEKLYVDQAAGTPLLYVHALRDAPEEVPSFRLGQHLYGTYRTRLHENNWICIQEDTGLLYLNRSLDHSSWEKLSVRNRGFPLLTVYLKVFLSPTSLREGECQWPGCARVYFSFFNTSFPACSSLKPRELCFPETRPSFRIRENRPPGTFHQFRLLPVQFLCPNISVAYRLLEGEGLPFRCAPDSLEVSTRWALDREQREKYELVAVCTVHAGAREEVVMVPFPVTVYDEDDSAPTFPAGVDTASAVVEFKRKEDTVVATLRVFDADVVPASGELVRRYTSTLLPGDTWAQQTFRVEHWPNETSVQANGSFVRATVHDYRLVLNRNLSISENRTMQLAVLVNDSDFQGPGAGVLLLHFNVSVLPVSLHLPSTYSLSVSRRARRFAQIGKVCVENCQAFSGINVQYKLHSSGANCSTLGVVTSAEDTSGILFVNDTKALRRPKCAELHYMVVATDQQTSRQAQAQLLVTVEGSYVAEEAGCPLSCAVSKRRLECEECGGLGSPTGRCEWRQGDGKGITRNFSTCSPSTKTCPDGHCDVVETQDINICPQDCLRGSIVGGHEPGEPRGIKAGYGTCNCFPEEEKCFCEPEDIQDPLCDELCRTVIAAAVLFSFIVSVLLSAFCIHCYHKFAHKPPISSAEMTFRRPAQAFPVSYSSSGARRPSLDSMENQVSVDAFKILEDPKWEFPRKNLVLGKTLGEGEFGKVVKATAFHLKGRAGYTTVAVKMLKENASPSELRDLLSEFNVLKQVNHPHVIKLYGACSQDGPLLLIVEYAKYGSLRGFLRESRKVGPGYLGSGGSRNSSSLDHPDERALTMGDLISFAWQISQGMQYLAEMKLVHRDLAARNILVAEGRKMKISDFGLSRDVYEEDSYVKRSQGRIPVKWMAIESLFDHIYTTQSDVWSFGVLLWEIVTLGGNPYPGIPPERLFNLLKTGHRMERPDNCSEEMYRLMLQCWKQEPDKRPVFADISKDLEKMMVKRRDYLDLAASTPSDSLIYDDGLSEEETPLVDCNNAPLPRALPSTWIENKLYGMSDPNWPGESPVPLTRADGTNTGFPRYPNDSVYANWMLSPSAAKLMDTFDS
T2 sequence (Q06187 whole entry): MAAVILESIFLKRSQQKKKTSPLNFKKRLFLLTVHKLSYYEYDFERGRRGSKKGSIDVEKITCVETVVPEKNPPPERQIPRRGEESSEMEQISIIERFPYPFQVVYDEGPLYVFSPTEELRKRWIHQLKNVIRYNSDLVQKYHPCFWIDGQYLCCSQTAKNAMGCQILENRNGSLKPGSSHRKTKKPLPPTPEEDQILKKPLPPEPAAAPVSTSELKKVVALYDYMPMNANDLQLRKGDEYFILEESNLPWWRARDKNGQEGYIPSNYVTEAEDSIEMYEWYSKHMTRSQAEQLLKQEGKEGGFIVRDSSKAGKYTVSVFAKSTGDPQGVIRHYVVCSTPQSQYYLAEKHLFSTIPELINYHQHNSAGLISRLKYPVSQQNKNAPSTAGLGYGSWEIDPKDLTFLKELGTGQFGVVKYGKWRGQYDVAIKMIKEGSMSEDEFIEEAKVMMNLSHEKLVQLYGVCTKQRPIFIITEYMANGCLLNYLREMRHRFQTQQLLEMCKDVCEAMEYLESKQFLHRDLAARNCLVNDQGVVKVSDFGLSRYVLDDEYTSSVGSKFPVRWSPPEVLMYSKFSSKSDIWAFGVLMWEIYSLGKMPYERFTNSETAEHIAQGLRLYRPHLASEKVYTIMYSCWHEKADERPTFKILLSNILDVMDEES
T7 sequence (P07949 29-1114 V804M): as the sequence (P07949 29-1114) above, with V776M counted along it
T1 sequence (P12931 whole entry): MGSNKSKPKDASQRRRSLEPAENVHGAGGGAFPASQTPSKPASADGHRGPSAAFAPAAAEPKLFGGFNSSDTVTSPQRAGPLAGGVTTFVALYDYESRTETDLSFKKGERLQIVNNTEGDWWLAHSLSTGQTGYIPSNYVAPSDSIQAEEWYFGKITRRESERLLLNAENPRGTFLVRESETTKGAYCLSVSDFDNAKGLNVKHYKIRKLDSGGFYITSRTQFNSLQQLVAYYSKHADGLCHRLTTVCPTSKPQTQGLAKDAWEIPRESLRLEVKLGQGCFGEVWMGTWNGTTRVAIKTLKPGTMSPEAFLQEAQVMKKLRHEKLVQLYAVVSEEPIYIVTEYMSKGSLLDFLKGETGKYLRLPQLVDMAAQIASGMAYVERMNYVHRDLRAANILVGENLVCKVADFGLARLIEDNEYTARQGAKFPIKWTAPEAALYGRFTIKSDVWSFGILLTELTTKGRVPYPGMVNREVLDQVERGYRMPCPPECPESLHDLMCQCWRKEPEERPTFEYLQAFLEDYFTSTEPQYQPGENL
T4 sequence (P07949 29-1114 G810R): as the sequence (P07949 29-1114) above, with G782R counted along it
T5 sequence (P04629 33-796): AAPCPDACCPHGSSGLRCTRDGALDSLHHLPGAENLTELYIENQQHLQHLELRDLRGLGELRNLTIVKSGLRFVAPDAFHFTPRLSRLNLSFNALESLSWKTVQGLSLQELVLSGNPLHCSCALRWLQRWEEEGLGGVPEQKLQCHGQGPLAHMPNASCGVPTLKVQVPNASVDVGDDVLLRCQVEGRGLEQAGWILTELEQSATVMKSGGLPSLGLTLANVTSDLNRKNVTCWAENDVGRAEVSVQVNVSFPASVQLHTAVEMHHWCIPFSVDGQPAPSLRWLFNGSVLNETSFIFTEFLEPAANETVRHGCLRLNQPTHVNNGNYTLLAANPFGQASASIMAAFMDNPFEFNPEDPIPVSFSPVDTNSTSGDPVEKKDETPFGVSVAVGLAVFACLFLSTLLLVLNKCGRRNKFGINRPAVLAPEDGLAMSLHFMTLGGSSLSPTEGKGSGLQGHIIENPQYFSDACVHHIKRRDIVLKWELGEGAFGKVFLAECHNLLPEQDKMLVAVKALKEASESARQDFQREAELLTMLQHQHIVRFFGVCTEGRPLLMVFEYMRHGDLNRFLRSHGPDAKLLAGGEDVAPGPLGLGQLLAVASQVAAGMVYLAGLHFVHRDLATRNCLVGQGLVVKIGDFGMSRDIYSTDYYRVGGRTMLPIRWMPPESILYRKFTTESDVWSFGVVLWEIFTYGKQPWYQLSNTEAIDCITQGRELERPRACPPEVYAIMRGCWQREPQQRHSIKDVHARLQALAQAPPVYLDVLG
T6 sequence (Q06187 whole entry C481S): as the sequence (Q06187 whole entry) above, with C481S counted along it

| Structure (SMILES) | IC50 (SRC) | IC50 (BTK) | IC50 (RET wt) | IC50 (RET G810R) | IC50 (TRKa) | IC50 (BTK C481S) | IC50 (RET V804M) |
| --- | --- | --- | --- | --- | --- | --- | --- |
| CNc1c(-c2ccccc2)c2nc3c(cnn13)C(=O)NC[C@H](C)Oc1ncc(F)cc1CN2 [Example 64, (S, 1^3E, 1^4E)-4^5-fluoro-6-methyl-1^7-(methylamino)-1^6-phenyl-5-oxa-2,8-diaza-1(5,3)-pyrazolopyrimidin-4(3,2)-pyridinacyclononaphan-9-one] | 61 nM | > 1000 nM | 128 nM |  |  |  |  |
| CC(C)OC(=O)Nc1ccc(-c2cn3ncc4c3nc2NCc2cc(F)cnc2O[C@@H](C)CNC4=O)cc1 [Compound 31, iso-propyl (4-((S, 1^3E, 1^4E)-4^5-fluoro-6-methyl-9-oxo-5-oxa-2,8-diaza-1(5,3)-pyrazolo[1,5-a]pyrimidin-4(3,2)-pyridinacyclononaphan-1^6-yl)phenyl)carbamate] | 843 nM | > 10000 nM | 4.05 nM | 12.3 nM | > 10000 nM |  |  |
| C[C@H]1CNC(=O)c2cnn3cc(-c4cnn(C)c4)c(nc23)NCc2cc(F)cnc2O1 [Compound 24] |  | 296 nM | 20 nM |  | > 10000 nM | 398 nM |  |
| C[C@H]1CNC(=O)c2c(Br)nn3c(N)c(-c4ccccc4)c(nc23)NCc2cc(F)cnc2O1 [Example 76, (S, 1^3E, 1^4E)-1^2-bromo-1^6-phenyl-1^7-amino-4^5-fluoro-6-methyl-5-oxa-2,8-diaza-1(5,3)-pyrazolo[1,5-a]pyrimidinyl-4(3,2)-pyridinacyclononaphan-9-one] |  | > 1000 nM | 922 nM | > 1000 nM |  | > 1000 nM | > 1000 nM |
| C[C@H]1CNC(=O)c2cnn3c(N)c(-c4ccc(NC(=O)OCC5CC5)cc4)c(nc23)NCc2cc(F)cnc2O1 [Example 63, cyclopropylmethyl (4-((S, 1^3E, 1^4E)-1^7-amino-4^5-fluoro-6-methyl-9-oxo-5-oxo-2,8-diaza-1(5,3)-pyrazolo[1,5-a]pyrimidin-4(3,2)-pyridinacyclononaphan-1^6-yl)phenyl)carbamate] | 2.8 nM | 33 nM | 1.2 nM | 22 nM | 65 nM |  | 3.5 nM |
| C[C@H]1CNC(=O)c2c(C#N)nn3c(N)c(-c4ccccc4)c(nc23)NCc2cc(F)cnc2O1 [Example 77, (S, 1^3E, 1^4E)-1^2-cyano-1^6-phenyl-1^7-amino-4^5-fluoro-6-methyl-5-oxa-2,8-diaza-1(5,3)-pyrazolo[1,5-a]pyrimidinyl-4(3,2)-pyridinacyclononaphan-9-one] |  | > 1000 nM | > 1000 nM | > 1000 nM |  | > 1000 nM | > 1000 nM |
| COC(=O)Nc1ccc(-c2c3nc4c(cnn4c2N)C(=O)NC[C@H](C)Oc2ncc(F)cc2CN3)cc1 [Compound 49, methyl (4-((S, 1^3E, 1^4E)-1^7-amino-4^5-fluoro-6-methyl-9-oxo-5-oxa-2,8-diaza-1(5,3)-pyrazolino [1,5-a]pyrimidin-4(3,2)-pyridinacyclononaphan-1^6-yl)-phenyl)carbamate] |  | 9.2 nM | < 0.51 nM | 9.3 nM |  | 15 nM | 1.3 nM |
| Nc1c(-c2ccccc2)c2nc3c(cnn13)C(=O)N1CCCC1COc1ncc(F)cc1CN2 (stereo not drawn) [Example 79] |  | 45 nM | 104 nM | > 1000 nM |  | 97 nM | > 1000 nM |
| Cc1nn2c(N)c(-c3ccccc3)c3nc2c1C(=O)NC[C@H](C)Oc1ncc(F)cc1CN3 [Example 74, (S, 1^3E, 1^4E)-1^7-amino-4^5-fluoro-1^2,6-dimethyl-1^6-phenyl-5-oxa-2,8-diaza-1(5,3)-pyrazolo[1,5-a]pyrimidinyl-4(3,2)-pyridinacyclononaphan-9-one] |  | > 1000 nM | 323 nM | > 1000 nM |  | > 1000 nM | > 1000 nM |
| C[C@H]1CN(C)C(=O)c2cnn3c(N)c(-c4ccccc4)c(nc23)NCc2cc(F)cnc2O1 [Example 75, (S, 1^3E, 1^4E)-1^7-amino-4^5-fluoro-6,8-dimethyl-1^6-phenyl-5-oxo-2,8-diaza-1(5,3)-pyrazolo[1,5-a]pyrimidin-4(3,2)-pyridinacyclononaphan-9-one] |  | 22 nM | 20 nM | > 1000 nM |  | 52 nM | 311 nM |
| C[C@H]1CNC(=O)c2cnn3cc(-c4ccccn4)c(nc23)NCc2cc(F)cnc2O1 [Compound 33] | 196 nM | > 10000 nM | 407 nM |  |  |  |  |
| C[C@H]1CNC(=O)c2cnn3cc(-c4ccc(Cl)cc4)c(nc23)NCc2cc(F)cnc2O1 [Compound 9, (S, 1^3E, 1^4E)-1^6-(4-chlorophenyl)-4^5-fluoro-6-methyl-5-oxa-2,8-diaza-1(5,3)-pyrazolo[1,5-a]pyrimidina-4(3,2)-pyridinacyclononaphan-9-one] |  | 25.9 nM | 8.2 nM |  | > 10000 nM | 13 nM |  |
| C[C@H]1CNC(=O)c2cnn3cc(-c4cccc(Cl)c4)c(nc23)NCc2cc(F)cnc2O1 [Compound 3, (S, 1^3E, 1^4E)-1^6-(3-chlorophenyl)-4^5-fluoro-6-methyl-5-oxa-2,8-diaza-1(5,3)-pyrazolo[1,5-a]pyrimidina-4(3,2)-pyridinacyclononaphan-9-one] |  |  | 22 nM |  | > 10000 nM | 54.8 nM |  |
| C[C@H]1CNC(=O)c2cnn3cc(-c4ccc(N5CCOC5=O)cc4Cl)c(nc23)NCc2cc(F)cnc2O1 [Compound 40, (S, 1^3E, 1^4E)-1^6-(2-chloro-4-(2-oxaoxazolidin-3-yl)phenyl)-4^5-fluoro-6-methyl-5-oxa-2,8-diaza-1(5,3)-pyrazolo[1,5-a]pyrimidin-4(3,2)-pyridinacyclononaphan-9-one] | 105 nM | 176 nM | 465 nM |  |  |  |  |
| C[C@H]1CNC(=O)c2cnn3cc(N4CCOCC4)c(nc23)NCc2cc(F)cnc2O1 [Compound 17, (S, 1^3E, 1^4E)-4^5-fluoro-6-methyl-1^6-morpholino-5-oxa-2,8-diaza-1(5,3)-pyrazolo[1,5-a]pyrimidina-4(3,2)-pyridinacyclononaphan-9-one] |  | > 10000 nM | > 10000 nM |  | > 10000 nM | > 10000 nM |  |
| Nc1c(-c2ccccc2)c2nc3c(cnn13)C(=O)NC1CCCC1Oc1ncc(F)cc1CN2 (stereo not drawn) [Example 78, (6^3E, 6^4E)-6^7-amino-1^5-fluoro-6^6-phenyl-2-oxo-4,7-diaza-6(3,5)-pyrazolo[1,5-a]pyrimidin-1(2,3)-pyridin-3(1, 2)-cyclopentanacyclooctaphan-5-one] |  | 1.7 nM | 2.5 nM | 337 nM |  | 1.7 nM | 24 nM |
| C[C@H]1CNC(=O)c2cnn3c(N)c(-c4ccccc4F)c(nc23)NCc2cc(F)cnc2O1 [Example 66] |  | 1.7 nM | 1.3 nM | 53.7 nM | 101 nM | 1.45 nM |  |
